This is an account of results in PubChem BioAssay AID256 (DTP/NCI, 2004).

The assay deals with CD2F1 mice, L1210 leukemia ip, survival T/C. In words: NCI In Vivo Anticancer Drug Screen. Data for tumor model L1210 Leukemia (intraperitoneal) in CD2F1 (CDF1) mice. As to conditions: higher = longer survival. An outline of the steps: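 Tumor-bearing mice (transplanted tumor) were split into treated and vehicle control groups, and the measured endpoint of each treated group was divided by that of its vehicle controls.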

[1] abbreviates: endpoint: mean survival time, dose: 100.0 mg/kg/injection, schedule: Q01DX001 (ip), vehicle: saline with Tween-80.
Setting [2] is: endpoint: mean survival time, dose: 100.0 mg/kg/injection, schedule: Q04DX003 (ip), vehicle: saline with Tween-80.
Where [3] appears, read: endpoint: mean survival time, dose: 200.0 mg/kg/injection, schedule: Q04DX003 (ip), vehicle: saline with Tween-80.
The mark [4] stands for this setting: endpoint: mean survival time, dose: 400.0 mg/kg/injection, schedule: Q04DX003 (ip), vehicle: saline with Tween-80.

Values joined by “and” are separate entries in the source; they are usually repeats but may differ in a detail not shown here. Equal entries are not always repeated. Toxic doses and inconclusive results are not listed.

On to `N#Cc1ncc(-c2ccccc2)nc1C#N`, for which the T/C reads like this: under setting [1], 91 % of control; (endpoint: mean survival time, dose: 200.0 mg/kg/injection, schedule: Q01DX001 (ip), vehicle: saline with Tween-80) 92 % of control; (endpoint: mean survival time, dose: 400.0 mg/kg/injection, schedule: Q01DX001 (ip), vehicle: saline with Tween-80) 105 % of control.
`CC(C)CC(NC(=O)c1ccccc1)C(N)=O` (configuration not stated): the T/C by setting is: under setting [2], 101 % of control; under setting [3], 97 % of control; under setting [4], 92 % of control.
The like results for `CCCCC1CCC(NC(=O)Nc2ccccc2)CC1` (configuration not stated) were, in that order, 113 % of control, 109 % of control and 105 % of control.
`CC(C)(C)CC(C)(C)c1ccc(OCCOc2ccc(CC(=S)N3CCOCC3)cc2)cc1`: the T/C was 96 % of control (endpoint: mean survival time, dose: 100.0 mg/kg/injection, schedule: Q01DX009 (ip), vehicle: Klucel (hydroxypropylcellulose) (HPC)); 93 % of control under setting [2]; 95 % of control (endpoint: mean survival time, dose: 200.0 mg/kg/injection, schedule: Q01DX009 (ip), vehicle: Klucel (hydroxypropylcellulose) (HPC)); 95 % of control under setting [3]; 98 % of control (endpoint: mean survival time, dose: 400.0 mg/kg/injection, schedule: Q01DX009 (ip), vehicle: Klucel (hydroxypropylcellulose) (HPC)); 87 % of control under setting [4].
Consider `O=C(Nc1ccccc1)c1ccccc1C(O)(c1ccccc1)c1ccc(Cl)cc1` (configuration not stated), for which the T/C is, setting by setting: under setting [2], 95 % of control; under setting [3], 95 % of control; under setting [4], 97 % of control.
On to `O=S1CCCO1` (configuration not stated), for which, for the setting “endpoint: mean survival time, dose: 18.8 mg/kg/injection, schedule: Q04DX003 (ip), vehicle: saline”, the T/C was 101 % of control.
For the compound `C[S+](C)CC(C)(C)CI`, the T/C (endpoint: mean survival time, dose: 25.0 mg/kg/injection, schedule: Q01DX001 (ip), vehicle: saline) is 100 % of control; the T/C (endpoint: mean survival time, dose: 50.0 mg/kg/injection, schedule: Q01DX001 (ip), vehicle: saline) is 110 % of control; the T/C (endpoint: mean survival time, dose: 100.0 mg/kg/injection, schedule: Q01DX001 (ip), vehicle: saline) is 100 % of control and 101 % of control.
On to `CC1=CC(=O)C(c2ccc(O)cc2O)=CC1=O`, for which the T/C was 96 % of control (endpoint: mean survival time, dose: 2.5 mg/kg/injection, schedule: Q01DX009 (ip), vehicle: saline with Tween-80); 102 % of control (endpoint: mean survival time, dose: 2.5 mg/kg/injection, schedule: Q04DX003 (ip), vehicle: saline with Tween-80); 91 % of control (endpoint: mean survival time, dose: 5.0 mg/kg/injection, schedule: Q01DX009 (ip), vehicle: saline with Tween-80); 104 % of control (endpoint: mean survival time, dose: 5.0 mg/kg/injection, schedule: Q04DX003 (ip), vehicle: saline with Tween-80); 95 % of control (endpoint: mean survival time, dose: 10.0 mg/kg/injection, schedule: Q01DX009 (ip), vehicle: saline with Tween-80); 95 % of control (endpoint: mean survival time, dose: 10.0 mg/kg/injection, schedule: Q04DX003 (ip), vehicle: saline with Tween-80).
As to `C=CC[N+]12CC=C3COC(=O)C(C)(O)C(C)(O)C(C)C(=O)OC(CC1)C32` (configuration not stated), the T/C (endpoint: mean survival time, dose: 100.0 mg/kg/injection, schedule: Q04DX003 (ip), vehicle: Klucel (hydroxypropylcellulose) (HPC)) is 101 % of control; the T/C (endpoint: mean survival time, dose: 200.0 mg/kg/injection, schedule: Q04DX003 (ip), vehicle: Klucel (hydroxypropylcellulose) (HPC)) is 90 % of control; the T/C (endpoint: mean survival time, dose: 400.0 mg/kg/injection, schedule: Q04DX003 (ip), vehicle: Klucel (hydroxypropylcellulose) (HPC)) is 93 % of control.
Take `C1CCC2(CCC34CCCCC3CCCC4)CCCCC2C1` (configuration not stated): the T/C runs as follows: under setting [2], 101 % of control; under setting [3], 102 % of control; under setting [4], 102 % of control.
Consider `O=C(OCC1OC(n2ccn(C3OC(COC(=O)c4ccccc4)C(OC(=O)c4ccccc4)C3OC(=O)c3ccccc3)c2=S)C(OC(=O)c2ccccc2)C1OC(=O)c1ccccc1)c1ccccc1` (configuration not stated), for which the T/C was 102 % of control (endpoint: mean survival time, dose: 12.5 mg/kg/injection, schedule: Q01DX005 (ip), vehicle: water); 104 % of control (endpoint: mean survival time, dose: 25.0 mg/kg/injection, schedule: Q01DX005 (ip), vehicle: water); 94 % of control (endpoint: mean survival time, dose: 50.0 mg/kg/injection, schedule: Q01DX005 (ip), vehicle: water); 94 % of control (endpoint: mean survival time, dose: 100.0 mg/kg/injection, schedule: Q01DX005 (ip), vehicle: water); 94 % of control (endpoint: mean survival time, dose: 200.0 mg/kg/injection, schedule: Q01DX005 (ip), vehicle: water).
In the case of `CCOC(=O)C(C)(C(=O)OCC)n1cnc2c1c(=O)n(C)c(=O)n2C`, the T/C (endpoint: mean survival time, dose: 100.0 mg/kg/injection, schedule: Q01DX005 (ip), vehicle: distilled water + Tween-80) was 100 % of control; the T/C (endpoint: mean survival time, dose: 200.0 mg/kg/injection, schedule: Q01DX005 (ip), vehicle: distilled water + Tween-80) is 102 % of control; the T/C (endpoint: mean survival time, dose: 400.0 mg/kg/injection, schedule: Q01DX005 (ip), vehicle: distilled water + Tween-80) was 107 % of control.
Turning to `CC(=O)OC1COC(NC(=O)N(CCCl)N=O)C(OC(C)=O)C1OC(C)=O` (configuration not stated), the T/C runs as follows: (endpoint: median survival time, dose: 0.75 mg/kg/injection, schedule: Q01DX009 (ip), vehicle: saline with Tween-80) 115 % of control and 122 % of control and 111 % of control; (endpoint: median survival time, dose: 3.0 mg/kg/injection, schedule: Q01DX009 (ip), vehicle: saline with Tween-80) 150 % of control and 166 % of control; (endpoint: median survival time, dose: 6.0 mg/kg/injection, schedule: Q01DX009 (ip), vehicle: saline with Tween-80) 168 % of control and 191 % of control and 205 % of control; (endpoint: median survival time, dose: 12.0 mg/kg/injection, schedule: Q01DX009 (ip), vehicle: saline with Tween-80) 315 % of control and 322 % of control and 674 % of control.
Turning to `COc1cc2nc(/C=C/c3nc4cc(OC)c(OC)cc4[nH]3)[nH]c2cc1OC`, the T/C under setting [1] was 106 % of control.
